From PubChem BioAssay AID330 (DTP/NCI, 2004)
Several values for one entry are separate records, joined by “and”; a condition that tells them apart may be missing. Equal values may be shown once. Inconclusive results and toxic doses are left out. The calls were made as follows: active = survival T/C of 150% or more; inactive = T/C below 125% in these data.

Test system: P388 leukemia ip, CD2F1 mice, survival T/C
Assay: NCI In Vivo Anticancer Drug Screen. Data for tumor model P388 Leukemia (intraperitoneal) in CD2F1 (CDF1) mice
Settings: endpoint: median survival time, higher = longer survival
Procedure, shortened: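 Mice carrying the transplanted tumor received test compound or vehicle. Survival was recorded in each group, and the value is the treated-group measurement divided by that of the vehicle-treated control group.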

[1] = dose: 50.0 mg/kg/injection, schedule: Q01DX005 (ip), vehicle: saline with Tween-80
[2] = dose: 100.0 mg/kg/injection, schedule: Q01DX005 (ip), vehicle: saline with Tween-80

Measured: T/C

C=CS(C=C)=NS(=O)(=O)c1ccc(C)cc1
inactive: dose: 6.25 mg/kg/injection, schedule: Q01DX009 (ip), vehicle: other 107 % of control and 110 % of control and 120 % of control | dose: 12.5 mg/kg/injection, schedule: Q01DX009 (ip), vehicle: other 107 % of control and 118 % of control and 120 % of control | dose: 25.0 mg/kg/injection, schedule: Q01DX009 (ip), vehicle: other 117 % of control

C=C1C[C@@]2(OC)OCC[C@H]3C(C)=CCC(C1=O)[C@]32C(=O)OC (some centres not stated)
inactive: [1] 105 % of control | [2] 105 % of control

CN(C)Cc1cccc[c]1[Sn]([CH3])([Br])[c]1ccccc1CN(C)C
inactive: dose: 3.12 mg/kg/injection, schedule: Q01DX009 (ip), vehicle: saline 101 % of control and 113 % of control and 88 % of control

O=C(/C=C/c1ccc(O)cc1)OCC1OC(Oc2cc(O)c3c(c2)OC(c2ccc(O)cc2)CC3=O)C(O)C(O)C1O (configuration not stated)
inactive: dose: 100.0 mg/kg/injection, schedule: Q04DX002 (ip), vehicle: saline 107 % of control | dose: 200.0 mg/kg/injection, schedule: Q04DX002 (ip), vehicle: saline 94 % of control | dose: 400.0 mg/kg/injection, schedule: Q04DX002 (ip), vehicle: saline 107 % of control

COc1cccc2c1C(=O)c1c(O)c3c(c(O)c1C2=O)CC(O)(C(C)=O)CC3OC1CC(NC(=O)C(N)CCCCN)C(O)C(C)O1 (configuration not stated)
inactive: dose: 2.5 mg/kg/injection, schedule: Q04DX003 (ip), vehicle: water 101 % of control | dose: 5.0 mg/kg/injection, schedule: Q04DX003 (ip), vehicle: water 101 % of control and 103 % of control | dose: 10.0 mg/kg/injection, schedule: Q04DX003 (ip), vehicle: distilled water + Tween-80 95 % of control | dose: 10.0 mg/kg/injection, schedule: Q04DX003 (ip), vehicle: water 101 % of control and 109 % of control | dose: 20.0 mg/kg/injection, schedule: Q04DX003 (ip), vehicle: distilled water + Tween-80 96 % of control | dose: 20.0 mg/kg/injection, schedule: Q04DX003 (ip), vehicle: water 109 % of control and 118 % of control | dose: 40.0 mg/kg/injection, schedule: Q04DX003 (ip), vehicle: distilled water + Tween-80 105 % of control | dose: 40.0 mg/kg/injection, schedule: Q04DX003 (ip), vehicle: water 106 % of control and 122 % of control | dose: 80.0 mg/kg/injection, schedule: Q04DX003 (ip), vehicle: distilled water + Tween-80 112 % of control | dose: 80.0 mg/kg/injection, schedule: Q04DX003 (ip), vehicle: water 118 % of control

CCOCc1c(-c2ccccc2)sc2ccccc2c1=O
inactive: dose: 60.0 mg/kg/injection, schedule: Q01DX005 (ip), vehicle: Klucel (hydroxypropylcellulose) (HPC) 98 % of control | dose: 120.0 mg/kg/injection, schedule: Q01DX005 (ip), vehicle: Klucel (hydroxypropylcellulose) (HPC) 95 % of control | dose: 240.0 mg/kg/injection, schedule: Q01DX005 (ip), vehicle: Klucel (hydroxypropylcellulose) (HPC) 92 % of control

COC(=O)C1CCC(=O)N1Cc1cccs1 (configuration not stated)
inactive: dose: 60.0 mg/kg/injection, schedule: Q01DX005 (ip), vehicle: saline with Tween-80 109 % of control | dose: 120.0 mg/kg/injection, schedule: Q01DX005 (ip), vehicle: saline with Tween-80 104 % of control | dose: 240.0 mg/kg/injection, schedule: Q01DX005 (ip), vehicle: saline with Tween-80 106 % of control

O=S1(=O)CS(=O)(=O)OCCO1
inactive: dose: 3.12 mg/kg/injection, schedule: Q01DX005 (ip), vehicle: Klucel (hydroxypropylcellulose) (HPC) 124 % of control
active: dose: 6.25 mg/kg/injection, schedule: Q01DX005 (ip), vehicle: Klucel (hydroxypropylcellulose) (HPC) 155 % of control | dose: 9.0 mg/kg/injection, schedule: Q01DX005 (ip), vehicle: Klucel (hydroxypropylcellulose) (HPC) 162 % of control and 165 % of control | dose: 12.5 mg/kg/injection, schedule: Q01DX005 (ip), vehicle: Klucel (hydroxypropylcellulose) (HPC) 216 % of control | dose: 14.0 mg/kg/injection, schedule: Q01DX005 (ip), vehicle: Klucel (hydroxypropylcellulose) (HPC) 191 % of control (2×) and 200 % of control | dose: 25.0 mg/kg/injection, schedule: Q01DX005 (ip), vehicle: Klucel (hydroxypropylcellulose) (HPC) 267 % of control and 270 % of control | dose: 75.0 mg/kg/injection, schedule: Q01DX005 (ip), vehicle: Klucel (hydroxypropylcellulose) (HPC) 207 % of control and 588 % of control

O=C(O)c1ccccc1C(=O)n1cnc2ccccc21
inactive: dose: 50.0 mg/kg/injection, schedule: Q01DX009 (ip), vehicle: saline with Tween-80 87 % of control | dose: 100.0 mg/kg/injection, schedule: Q01DX009 (ip), vehicle: saline with Tween-80 94 % of control | dose: 200.0 mg/kg/injection, schedule: Q01DX009 (ip), vehicle: saline with Tween-80 90 % of control

C=CCN(CC=C)C1CCOC(OC)C1O (configuration not stated)
inactive: dose: 30.0 mg/kg/injection, schedule: Q01DX005 (ip), vehicle: saline 100 % of control and 112 % of control | dose: 60.0 mg/kg/injection, schedule: Q01DX005 (ip), vehicle: saline 113 % of control [middle of 4 runs] | dose: 120.0 mg/kg/injection, schedule: Q01DX005 (ip), vehicle: saline 119 % of control [middle of 4 runs] | dose: 240.0 mg/kg/injection, schedule: Q01DX005 (ip), vehicle: saline 99 % of control and 119 % of control and 123 % of control

COc1cc(OCc2ccc(OCc3ccccc3)cc2)cc(OC)c1OC
inactive: [1] 93 % of control | [2] 105 % of control | dose: 200.0 mg/kg/injection, schedule: Q01DX005 (ip), vehicle: saline with Tween-80 95 % of control
